# In the supplement of paper PMC10307832:
# Compound: CC1(C)CNc2cc(NC(=O)c3cccnc3NCc3ccncc3)ccc21 [Motesanib] + Cc1nc(NC(=O)N2CCC[C@H]2C(N)=O)sc1-c1ccnc(C(C)(C)C(F)(F)F)c1 [Alpelisib] (partner 2 µM)
# Assay: relative viability (nuclei count vs DMSO), 5 days (fraction); higher = more cells survive
# Conditions: first compound 0.01 µM
# Outline: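 Lung cancer cell lines were seeded in 1536-well plates and dosed by pin tool the next day, with either a single drug or a fixed anchor-drug dose combined with five library-drug doses (not always all listed) spaced in √10 steps. Five days later, one step fixed the cells and stained their nuclei (final 0.05% Triton X-100, 1% formaldehyde, 1 ug/ml Hoechst), and nuclei were counted on 4× images. Relative viability is the nuclei count in treated wells divided by the count in vehicle wells, and each value is the median of duplicate plates.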
row,Cell Line,relative viability
1,NCI-H727,0.599
2,EBC-1,0.795
3,NCI-H1703,0.294
4,NCI-H1993,0.656
5,SW 1573,0.825
6,NCI-H838,0.992
7,NCI-H520,0.864
8,NCI-H2126,0.77
9,EMC-BAC-2,0.76
10,NCI-H2085,0.939
11,Calu-6,0.984
12,HCC-366,0.445
13,NCI-H1666,0.799
14,NCI-H596,0.489
15,LK-2,1.06
16,NCI-H2087,1.01
17,SK-MES-1,1.04
18,H3255,0.78

row,Cell Line,relative viability
1,COR-L23,0.719
2,COR-L 105,0.872
3,IA-LM,0.616
4,LOU-NH91,0.746
5,NCI-H2170,0.803
6,HOP-62,0.91
7,HCC-44,0.771
8,A549,0.785
9,LU99A,0.465
10,BEN,1.07
11,HARA,0.808
12,HCC-78,0.337
13,NCI-H322M,0.713
14,LCLC-97TM1,0.238
15,NCI-H2009,1.15
16,NCI-H1299,1.03
17,NCI-H1563,0.985
18,ABC-1,1.02

# Same assay, conditions: first compound 0.03162 µM
row,Cell Line,relative viability
1,NCI-H727,0.678
2,EBC-1,0.914
3,NCI-H1703,0.283
4,NCI-H1993,0.659
5,SW 1573,0.759
6,NCI-H838,1.02
7,LCLC-103H,0.947
8,NCI-H520,0.899
9,NCI-H2126,0.723
10,EMC-BAC-2,0.742
11,NCI-H2085,1.01
12,Calu-6,0.931
13,HCC-366,0.422
14,NCI-H1666,0.977
15,NCI-H596,0.417
16,LK-2,0.962
17,NCI-H2087,1.08
18,SK-MES-1,0.948
19,H3255,0.7

row,Cell Line,relative viability
1,COR-L23,0.783
2,COR-L 105,1.16
3,IA-LM,0.788
4,LOU-NH91,0.759
5,NCI-H2170,0.789
6,NCI-H2405,0.738
7,HOP-62,0.663
8,HCC-44,0.774
9,A549,0.866
10,LU99A,0.555
11,BEN,1.08
12,HARA,0.852
13,HCC-78,0.304
14,NCI-H322M,0.737
15,LCLC-97TM1,0.241
16,NCI-H2009,1.18
17,NCI-H1299,1.09
18,NCI-H1563,0.92
19,ABC-1,0.995

# Same assay, conditions: first compound 0.1 µM
row,Cell Line,relative viability
1,NCI-H727,0.504
2,EBC-1,0.899
3,NCI-H1703,0.211
4,NCI-H1993,0.765
5,SW 1573,0.75
6,NCI-H838,1.08
7,LCLC-103H,1.06
8,NCI-H520,0.879
9,NCI-H2126,0.724
10,EMC-BAC-2,0.768
11,NCI-H2085,1.02
12,Calu-6,0.928
13,HCC-366,0.449
14,NCI-H1666,0.949
15,NCI-H596,0.496
16,LK-2,1.44
17,NCI-H2087,1.07
18,SK-MES-1,0.961
19,H3255,0.762

row,Cell Line,relative viability
1,COR-L23,0.802
2,COR-L 105,0.992
3,IA-LM,0.711
4,LOU-NH91,0.708
5,NCI-H2170,0.824
6,NCI-H2405,0.745
7,HOP-62,0.922
8,HCC-44,0.862
9,A549,0.728
10,LU99A,0.511
11,BEN,0.897
12,HARA,0.815
13,HCC-78,0.35
14,NCI-H322M,0.837
15,LCLC-97TM1,0.283
16,NCI-H2009,1.17
17,NCI-H1299,1.15
18,NCI-H1563,0.946
19,ABC-1,1.24

# Same assay, conditions: first compound 0.3162 µM
row,Cell Line,relative viability
1,NCI-H727,0.514
2,EBC-1,0.847
3,NCI-H1703,0.183
4,NCI-H1993,0.697
5,SW 1573,0.67
6,NCI-H838,0.982
7,LCLC-103H,0.931
8,NCI-H520,0.871
9,NCI-H2126,0.768
10,EMC-BAC-2,0.731
11,NCI-H2085,0.943
12,Calu-6,1.02
13,HCC-366,0.424
14,NCI-H1666,1.02
15,NCI-H596,0.542
16,LK-2,1.05
17,NCI-H2087,1.16
18,SK-MES-1,0.927
19,H3255,0.684

row,Cell Line,relative viability
1,COR-L23,0.736
2,COR-L 105,0.79
3,IA-LM,0.891
4,LOU-NH91,0.707
5,NCI-H2170,0.785
6,NCI-H2405,0.86
7,HOP-62,1.3
8,HCC-44,0.785
9,A549,0.779
10,LU99A,0.488
11,BEN,0.972
12,HARA,0.943
13,HCC-78,0.356
14,NCI-H322M,0.751
15,LCLC-97TM1,0.296
16,NCI-H2009,1.19
17,NCI-H1299,1.11
18,NCI-H1563,0.879
19,ABC-1,0.974

# Same assay, conditions: first compound 1 µM
row,Cell Line,relative viability
1,NCI-H727,0.602
2,EBC-1,0.925
3,NCI-H1703,0.239
4,NCI-H1993,0.642
5,SW 1573,0.821
